Data from patent US12655116B2, “Substituted isophthalic acid diamides” (Bayer Aktiengesellschaft, priority 2020, dated 2026).

What was measured:
DIGSA [1] = assay: Pre-emergence herbicidal action against DIGSA; type: in vivo, Digitaria sanguinalis
Outline: (§1)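 Herbicidal effect was assessed 3 weeks after treatment by visual comparison with untreated controls, 100% denoting dead plants. Aqueous WP or EC preparations had been applied at 600 to 800 l/ha with 0.2% wetting agent to the soil covering freshly sown seeds.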

ABUTH [2] = assay: Post-emergence herbicidal action against ABUTH; type: in vivo, Abutilon theophrasti; details: visual assessment about 3 weeks after treatment vs untreated controls
Outline: (§2)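 Herbicidal effect was scored visually in percent after about 3 weeks in the greenhouse. Plants had been raised in sandy loam and treated post-emergence at the one-leaf stage with formulated compound at 600 to 800 l/ha water plus 0.2% wetting agent.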

ABUTH [3] = assay: Pre-emergence herbicidal action against ABUTH; type: in vivo, Abutilon theophrasti; details: for Pre-emergence action against ABUTH (herbicidal activity): 80 g/ha, scored visually after 3 weeks vs untreated controls (100% = plants have died, 0% = like control plants); for Pre-emergence action against ABUTH (herbicidal activity in percent): dosage 20 g/ha, scored visually after 3 weeks vs untreated controls, 100% = plants have died, 0% = like control plants
Outline: as §1

ALOMY [4] = assay: Post-emergence herbicidal action against ALOMY; type: in vivo, Alopecurus myosuroides; details: dosage 20 g/ha, visual assessment about 3 weeks after treatment vs untreated controls
Outline: as §2

VERPE [5] = assay: Post-emergence herbicidal action against VERPE; type: in vivo, Veronica persica
Outline: as §2

AMARE [6] = assay: Pre-emergence herbicidal action against AMARE; type: in vivo, Amaranthus retroflexus
Outline: as §1

AMARE [7] = assay: Post-emergence herbicidal action against AMARE; type: in vivo, Amaranthus retroflexus; details: 20 g/ha, visual assessment about 3 weeks after treatment, 100% = plants have died, 0% = like control plants
Outline: as §2

VERPE [8] = assay: Pre-emergence herbicidal action against VERPE; type: in vivo, Veronica persica
Outline: as §1

DIGSA [9] = assay: Post-emergence herbicidal action against DIGSA; type: in vivo, Digitaria sanguinalis; details: for Post-emergence action against DIGSA in %: 5 g/ha; for Post-emergence action against DIGSA: 20 g/ha
Outline: as §2

PHBPU [10] = assay: Pre-emergence herbicidal action against PHBPU; type: in vivo, Pharbitis purpurea; details: dosage 80 g/ha
Outline: as §1

MATIN [11] = assay: Pre-emergence herbicidal action against MATIN; type: in vivo, Matricaria inodora
Outline: as §1

MATIN [12] = assay: Post-emergence herbicidal action against MATIN; type: in vivo, Matricaria inodora
Outline: as §2

VIOTR [13] = assay: Post-emergence herbicidal action against VIOTR; type: in vivo, Viola tricolor
Outline: as §2

ECHCG [14] = assay: Pre-emergence herbicidal action against ECHCG; type: in vivo, Echinochloa crus-galli; details: 80 g/ha
Outline: as §1

PHBPU [15] = assay: Post-emergence herbicidal action against PHBPU; type: in vivo, Pharbitis purpurea
Outline: as §2

ECHCG [16] = assay: Post-emergence herbicidal action against ECHCG; type: in vivo, Echinochloa crus-galli
Outline: as §2

SETVI [17] = assay: Pre-emergence herbicidal action against SETVI; type: in vivo, Setaria viridis
Outline: as §1

VIOTR [18] = assay: Pre-emergence herbicidal action against VIOTR; type: in vivo, Viola tricolor
Outline: as §1

POLCO = assay: Pre-emergence herbicidal action against POLCO; type: in vivo, Polygonum convolvulus
Outline: as §1

SETVI [19] = assay: Post-emergence herbicidal action against SETVI; type: in vivo, Setaria viridis
Outline: as §2

ALOMY [20] = assay: Pre-emergence herbicidal action against ALOMY; type: in vivo, Alopecurus myosuroides; details: 80 g/ha, pre-emergence, scored visually after 3 weeks vs untreated controls (100% = plants have died, 0% = like control plants)
Outline: as §1

AVEFA = assay: Pre-emergence herbicidal action against AVEFA; type: in vivo, Avena fatua; details: 80 g/ha, pre-emergence
Outline: as §1

[21] = 20 g/ha, scored visually after 3 weeks vs untreated controls, 100% = plants have died, 0% = like control plants
[22] = 80 g/ha, scored visually after 3 weeks vs untreated controls (100% = plants have died, 0% = like control plants)

SMILES	Pre-emergence action against DIGSA in % (DIGSA [1]; dosage 20 g/ha)	Pre-emergence action against DIGSA in % (DIGSA [1]; dosage 80 g/ha)	Post-emergence action against ABUTH in % (ABUTH [2]; dosage 20 g/ha)	Pre-emergence action against ABUTH (herbicidal activity) (ABUTH [3])	Pre-emergence action against ABUTH (herbicidal activity in percent) (ABUTH [3])	Post-emergence action against ALOMY in % (ALOMY [4])	Post-emergence action against VERPE in % (VERPE [5]; 20 g/ha)	Pre-emergence action against AMARE in % (AMARE [6]; [21])	Pre-emergence action against AMARE in % (AMARE [6]; [22])	Pre-emergence action against VERPE in % (VERPE [8]; dosage 80 g/ha)	Pre-emergence action against PHBPU in % (PHBPU [10])	Pre-emergence action against MATIN in % (MATIN [11]; dosage 20 g/ha)	Pre-emergence action against MATIN in % (MATIN [11]; dosage 80 g/ha)	Post-emergence action against MATIN in % (MATIN [12]; dosage 20 g/ha)	Pre-emergence action against ECHCG in % (ECHCG [14])	Post-emergence action against ECHCG in % (ECHCG [16]; dosage 20 g/ha)	Pre-emergence action against SETVI in % (SETVI [17]; dosage 80 g/ha)	Pre-emergence action against VIOTR in % (VIOTR [18]; dosage 80 g/ha)	Pre-emergence action against POLCO in % (POLCO; dosage 80 g/ha)	Pre-emergence action against ALOMY (herbicidal activity) (ALOMY [20])	further results
CCn1nnnc1NC(=O)c1ccc(C(F)(F)F)c(C(=O)NCC2CC2)c1C1CC1 [Example 2-289]	100%	100%	80%	100%	100%	90%	100%	100%	100%	100%	80%	90%	100%	90%	100%	90%	90%	100%	80%	90%	Post-emergence action against VERPE in % (VERPE [5]; 5 g/ha): 80%; Post-emergence action at 20 g/ha against AMARE in % (AMARE [7]): 100%; Post-emergence action against DIGSA in % (DIGSA [9]): 90%; Post-emergence action against DIGSA (DIGSA [9]): 100%; Post-emergence action against MATIN in % (MATIN [12]; dosage 5 g/ha): 80%; Post-emergence action against VIOTR in % (VIOTR [13]; 20 g/ha): 90%; Post-emergence action against PHBPU in % (PHBPU [15]; dosage 20 g/ha): 90%; Post-emergence action against ECHCG in % (ECHCG [16]; dosage 5 g/ha): 80%; Pre-emergence action against VIOTR in % (VIOTR [18]; dosage 20 g/ha): 100%; Post-emergence action against SETVI in % (SETVI [19]; dosage 20 g/ha): 80%
Cc1nnc(NC(=O)c2ccc(C(F)F)c(C(=O)NC(C)C3CC3)c2C)o1 (stereo not shown) [Example 6-258]	100%	100%	90%	100%	100%	80%	80%	100%	100%	100%	90%	–	90%	–	100%	90%	80%	80%	80%	90%	Post-emergence action against ABUTH in % (ABUTH [2]; dosage 5 g/ha): 80%; Post-emergence action at 20 g/ha against AMARE in % (AMARE [7]): 90%; Pre-emergence action against VERPE in % (VERPE [8]; dosage 20 g/ha): 90%; Post-emergence action against DIGSA (DIGSA [9]): 90%; Post-emergence action against ECHCG in % (ECHCG [16]; dosage 5 g/ha): 80%
CCn1nnnc1NC(=O)c1ccc(C(F)(F)F)c(C(=O)NC)c1OC [Example 2-56]	100%	100%	100%	100%	100%	80%	80%	100%	100%	100%	80%	90%	100%	90%	90%	100%	100%	90%	90%	90%	Post-emergence action against ABUTH in % (ABUTH [2]; dosage 5 g/ha): 100%; Post-emergence action at 20 g/ha against AMARE in % (AMARE [7]): 100%; Pre-emergence action against VERPE in % (VERPE [8]; dosage 20 g/ha): 80%; Post-emergence action against DIGSA in % (DIGSA [9]): 90%; Post-emergence action against DIGSA (DIGSA [9]): 100%; Post-emergence action against MATIN in % (MATIN [12]; dosage 5 g/ha): 80%; Post-emergence action against VIOTR in % (VIOTR [13]; 5 g/ha): 80%; Post-emergence action against VIOTR in % (VIOTR [13]; 20 g/ha): 100%; Post-emergence action against PHBPU in % (PHBPU [15]; dosage 5 g/ha): 80%; Post-emergence action against PHBPU in % (PHBPU [15]; dosage 20 g/ha): 90%; Pre-emergence action against SETVI in % (SETVI [17]; dosage 20 g/ha): 100%; Pre-emergence action against VIOTR in % (VIOTR [18]; dosage 20 g/ha): 80%; Post-emergence action against SETVI in % (SETVI [19]; dosage 5 g/ha): 80%; Post-emergence action against SETVI in % (SETVI [19]; dosage 20 g/ha): 100%
CCn1nnnc1NC(=O)c1ccc(C(F)F)c(C(=O)NC2CC2)c1OC [Example 2-74]	100%	100%	80%	100%	100%	80%	80%	100%	100%	90%	90%	100%	100%	80%	100%	80%	100%	100%	80%	100%	Post-emergence action against ABUTH in % (ABUTH [2]; dosage 5 g/ha): 80%; Post-emergence action against VIOTR in % (VIOTR [13]; 20 g/ha): 80%; Post-emergence action against PHBPU in % (PHBPU [15]; dosage 20 g/ha): 80%; Post-emergence action against ECHCG in % (ECHCG [16]; dosage 5 g/ha): 80%; Pre-emergence action against VIOTR in % (VIOTR [18]; dosage 20 g/ha): 100%; Post-emergence action against SETVI in % (SETVI [19]; dosage 20 g/ha): 90%; Pre-emergence action against AVEFA in % (AVEFA): 80%
CCn1nnnc1NC(=O)c1ccc(Br)c(C(=O)NC(C)C2CC2)c1Cl (stereo not shown) [Example 2-183]	90%	100%	–	100%	100%	80%	90%	90%	100%	90%	90%	90%	100%	90%	90%	90%	100%	100%	90%	90%	Post-emergence action against MATIN in % (MATIN [12]; dosage 5 g/ha): 80%; Post-emergence action against VIOTR in % (VIOTR [13]; 5 g/ha): 100%; Post-emergence action against VIOTR in % (VIOTR [13]; 20 g/ha): 100%; Post-emergence action against PHBPU in % (PHBPU [15]; dosage 20 g/ha): 80%; Pre-emergence action against POLCO in % (POLCO; dosage 20 g/ha): 90%; Pre-emergence action against AVEFA in % (AVEFA): 80%
